The values that follow come from the OPERA property sets (Mansouri et al. 2018).

As a reminder, the boiling point is the temperature of boiling at a given pressure. A word on the melting point: it is the temperature, or range, at which the solid turns liquid.

Conditions in the first data set: not given
`ClCCOC(c1ccccc1)c1ccccc1`: the ready biodegradability entry is reported as “not readily biodegradable”.
Turning to `Cc1ccc(N)cc1N`, the boiling point worked out at 292 °C, the log10 vapour pressure (mmHg) is -3.77, the melting point was found to be 99 °C and the ready biodegradability entry is recorded as “not readily biodegradable”.
As to `COC(=O)c1ccc(C)cc1O`, the boiling point worked out at 243 °C and the melting point worked out at 27.5 °C.
In the case of `CCC(=O)O[C@](Cc1ccccc1)(c1ccccc1)[C@H](C)CN(C)C`, the melting point was 75.5 °C.
For `O=C1CCCCC1=O`, the boiling point came to 194 °C and the melting point was 40 °C.
Compound `Cc1ccc(O)c(C(=O)O)c1` showed a melting point of 151 °C.
`FC(F)(F)c1nc2ccccc2[nH]1`: the melting point was 210 °C.
For the compound `O=Cc1ccc(Cl)c(Cl)c1`, the boiling point was determined as 248 °C and the melting point was found to be 44 °C.
Compound `CC1=C[C@H]2O[C@@H]3[C@H](O)C[C@](C)([C@@]2(CO)[C@H](O)C1=O)[C@]31CO1` displayed a melting point of 152 °C.
In the case of `FC(F)(F)C(F)(F)C(F)(F)C(F)(F)I`, the boiling point came to 67 °C and the melting point was -68 °C.
`CC(C#N)CCC#N` (configuration not stated) came in with a boiling point of 263 °C, a log10 vapour pressure (mmHg) of -2.29 and a melting point of -45 °C.
In the same order, the values of `CF` are -78.4 °C, 3.46 and -142 °C.
`O[C@@H]1CCCC[C@H]1Cl` showed a melting point of 29 °C.
For `Cc1cccc(C#N)c1`, the boiling point stood at 213 °C and the melting point is -23 °C.
For `Cc1c(Cl)cccc1Cl`, the boiling point was 198 °C, the melting point is 25.8 °C and the ready biodegradability result was “not readily biodegradable”.
`C=Cc1ccccc1` had a boiling point of 145 °C, a log10 Henry constant (atm·m³/mol) of -2.56, a log10 Koc (L/kg) of 2.96 and a log10 vapour pressure (mmHg) of 0.806. Further, the melting point is -31 °C and the ready biodegradability result is listed as “readily biodegradable”.
Compound `CC(=O)OC(C)C#N` (configuration not stated) returned a boiling point of 172 °C and a melting point of -75 °C.
`C[C@H](N[C@H](CCc1ccccc1)C(=O)O)C(=O)N1CCC[C@H]1C(=O)O` had a melting point of 150 °C.
In the case of `COc1cc(CC(=O)O)ccc1O`, the melting point worked out at 144 °C.
`O=C(O)c1cc[n+]([O-])cc1` gave a melting point of 270 °C.
For the compound `CCCCCCCCc1ccccc1`, the boiling point is 264 °C, the log10 vapour pressure (mmHg) was -1.95 and the melting point is -36 °C.
Compound `COc1cc(-c2ccc(N=C=O)c(OC)c2)ccc1N=C=O` yielded a melting point of 114 °C.
In turn, `C=C1CCCC1` yielded a boiling point of 75.5 °C.
In the case of `CCc1ccc(-c2ccccc2)cc1`, the ready biodegradability result was “not readily biodegradable”.
`COc1cc2c(cc1OC)[C@@]13CCN4CC5=CCO[C@H]6CC(=O)N2[C@H]1[C@H]6[C@H]5C[C@H]43`: the melting point was determined as 178 °C.
`O=C1CCCCCC1` showed a boiling point of 178 °C and a log10 vapour pressure (mmHg) of 0.0969.
The compound `CCCC(c1ccccc1)c1ccccc1` registered a boiling point of 287 °C and a melting point of 27 °C.
In the case of `Brc1c2ccccc2c(Br)c2ccccc12`, the melting point was found to be 226 °C.
`c1ccc2c(c1)sc1ccccc12` showed a boiling point of 332 °C, a log10 Koc (L/kg) of 4.05, a log10 biodegradation half-life (days) of 1.56 and a log10 vapour pressure (mmHg) of -3.69. For the same compound, the melting point came out at 97 °C and the ready biodegradability result was “not readily biodegradable”.
With `C=C(CC(C)(C)c1ccccc1)c1ccccc1`, the ready biodegradability result is recorded as “not readily biodegradable”.
Consider `Cc1ccccc1-c1ccccc1C`, for which the boiling point is 256 °C and the melting point was 19.5 °C.
Take `O=C1C2(Cl)C3(Cl)C4(Cl)C(Cl)(Cl)C5(Cl)C3(Cl)C1(Cl)C5(Cl)C24Cl` (configuration not stated): the log10 Koc (L/kg) amounted to 4.2 and the log10 vapour pressure (mmHg) is -6.65.
With `O=C(O)c1cccc(C(=O)O)c1O`, the melting point is 244 °C.
Consider `C=CC(=O)OCC`, for which the boiling point is 99.4 °C, the log10 vapour pressure (mmHg) came out at 1.59, the melting point was -71.2 °C and the ready biodegradability result is “readily biodegradable”.
Regarding `CC(=O)NC1C(O)OC(CO)C(O)C1O` (configuration not stated), the ready biodegradability result was “readily biodegradable”.
`Clc1ccc(Oc2c(Cl)cccc2Cl)cc1` had a log10 vapour pressure (mmHg) of -3.66.
The compound `O=C(Cl)c1ccc(Cl)cc1Cl` registered a melting point of 16.5 °C.
As to `CCC(CC)CCl`, the boiling point amounted to 126 °C.
As for `O[C@@H](c1ccccc1)[C@@H](O)c1ccccc1`, the melting point stood at 138 °C.

Staying with this data set, now noted: fish.
`Cc1ccc(-c2ccc(C)c(C)c2)cc1C` yielded a log10 biotransformation half-life (days) of -0.01.
The same measure, in the same setting: in the case of `CCCCCC(C)CCCC(C)C` (configuration not stated) it was 1.02.
On to `Nc1ccccc1`, for which the log10 BCF is 0.21 and the log10 biotransformation half-life (days) is -0.78.
Take `C[Si]1(C)O[Si](C)(C)O[Si](C)(C)O[Si](C)(C)O[Si](C)(C)O[Si](C)(C)O1`: the log10 biotransformation half-life (days) amounted to 2.34.
Take `CC(=CC(C)C)CC(C)C`: the log10 biotransformation half-life (days) turned out to be 0.92.
On the same count and under the same terms, in the case of `CCC(C)CCCC(C)C` (configuration not stated) it was 0.61.
For `O=[N+]([O-])c1c(Cl)cc(Cl)cc1Cl`, the log10 BCF is 2.47 and the log10 biotransformation half-life (days) turned out to be 0.71.
In the same order, the values of `ClCCOC(c1ccccc1)c1ccccc1` are 2.51 and -0.07.
Regarding `Cc1ccc(N)cc1N`, the log10 BCF is 1.7.
Same read-out and setting: in the case of `C=Cc1ccccc1` it was 1.13.
On to `CCCCCCCCc1ccccc1`, for which the log10 biotransformation half-life (days) was found to be 0.22.
Compound `CCc1ccc(-c2ccccc2)cc1` returned a log10 BCF of 2.82 and a log10 biotransformation half-life (days) of 0.06.
In the same order, the values of `c1ccc2c(c1)sc1ccccc12` are 3.05 and 0.83.
For `O=C1C2(Cl)C3(Cl)C4(Cl)C(Cl)(Cl)C5(Cl)C3(Cl)C1(Cl)C5(Cl)C24Cl` (configuration not stated), the log10 BCF worked out at 3.19.
